Converted amounts (≈) assume the structure as drawn.
Tests used:
Experiment in all cases: ≥ marks a high value that may be exact or a test limit, other limits are often not marked, values filed in µg/mL are converted to µM
[1] = system: Staphylococcus aureus ATCC 43300
[2] = system: Staphylococcus aureus
[3] = system: Staphylococcus epidermidis ATCC 12228
[4] = system: Salmonella enterica subsp. enterica serovar Typhimurium ATCC 14028
[5] = system: Salmonella enterica subsp. enterica serovar Typhimurium C77-31
[6] = system: Escherichia coli UB1005
[7] = system: Salmonella enterica subsp. enterica serovar Choleraesuis CVCC 503
[8] = system: Streptococcus agalactiae
[9] = system: Enterococcus faecalis ATCC 29212
[10] = system: Salmonella enterica subsp. enterica serovar Pullorum C79-13
[11] = system: Escherichia coli ATCC 25922
[12] = system: Staphylococcus aureus ATCC 29213

| Structure (SMILES) | MIC [1] | MIC [2] | MIC [3] | MIC [4] | MIC [5] | MIC [6] | MIC [7] | MIC [8] | MIC [9] | MIC [10] | MIC [11] | MIC [12] |
| --- | --- | --- | --- | --- | --- | --- | --- | --- | --- | --- | --- | --- |
| CC[C@H](C)[C@H](N)C(=O)N[C@H](C(=O)N[C@H](C(=O)N[C@@H](CS)C(=O)N[C@@H](CCCN=C(N)N)C(=O)N[C@@H](CCCCN)C(=O)N1CCC[C@H]1C(=O)N[C@H](C(=O)N[C@H](C(=O)N[C@@H](CS)C(=O)N[C@@H](CCCN=C(N)N)C(=O)N[C@@H](CCCCN)C(=O)N1CCC[C@H]1C(=O)N[C@H](C(=O)N[C@H](C(=O)N[C@@H](CS)C(=O)N[C@@H](CCCN=C(N)N)C(=O)N[C@@H](CCCCN)C(=O)N1CCC[C@H]1C(=O)N[C@H](C(=O)N[C@H](C(=O)N[C@@H](CS)C(=O)N[C@@H](CCCN=C(N)N)C(=O)N[C@@H](CCCCN)C(=O)N1CCC[C@H]1C(=O)N[C@H](C(=O)N[C@H](C(=O)N[C@H](C(N)=O)[C@@H](C)CC)[C@@H](C)CC)[C@@H](C)CC)[C@@H](C)CC)[C@@H](C)CC)[C@@H](C)CC)[C@@H](C)CC)[C@@H](C)CC)[C@@H](C)CC)[C@@H](C)CC)[C@@H](C)CC [IIICRKPIICRKPIICRKPIICRKPIII] | 4 µM (≈ 13.3 µg/mL) | 4 µM (≈ 13.3 µg/mL) | 4 µM (≈ 13.3 µg/mL) | 2 µM (≈ 6.63 µg/mL) | 2 µM (≈ 6.63 µg/mL) | 2 µM (≈ 6.63 µg/mL) | 2 µM (≈ 6.63 µg/mL) | 2 µM (≈ 6.63 µg/mL) | 8 µM (≈ 26.5 µg/mL) | 4 µM (≈ 13.3 µg/mL) |  |  |
| CC[C@H](C)[C@H](N)C(=O)N[C@@H](CS)C(=O)N[C@@H](CCCN=C(N)N)C(=O)N[C@@H](CCCCN)C(=O)N1CCC[C@H]1C(=O)N[C@H](C(=O)N[C@H](C(=O)N[C@@H](CS)C(=O)N[C@@H](CCCN=C(N)N)C(=O)N[C@@H](CCCCN)C(=O)N1CCC[C@H]1C(=O)N[C@H](C(=O)N[C@H](C(=O)N[C@@H](CS)C(=O)N[C@@H](CCCN=C(N)N)C(=O)N[C@@H](CCCCN)C(=O)N1CCC[C@H]1C(=O)N[C@H](C(N)=O)[C@@H](C)CC)[C@@H](C)CC)[C@@H](C)CC)[C@@H](C)CC)[C@@H](C)CC [ICRKPIICRKPIICRKPI] | > 64 µM | > 64 µM | > 64 µM | 8 µM (≈ 17.2 µg/mL) | 8 µM (≈ 17.2 µg/mL) | 4 µM (≈ 8.6 µg/mL) | 16 µM (≈ 34.4 µg/mL) | ≥ 64 µM | > 64 µM | ≥ 64 µM | 8 µM (≈ 17.2 µg/mL) | > 64 µM |
| CC[C@H](C)[C@H](N)C(=O)N[C@H](C(=O)N[C@H](C(=O)N[C@@H](CS)C(=O)N[C@@H](CCCN=C(N)N)C(=O)N[C@@H](CCCCN)C(=O)N1CCC[C@H]1C(=O)N[C@H](C(=O)N[C@H](C(=O)N[C@@H](CS)C(=O)N[C@@H](CCCN=C(N)N)C(=O)N[C@@H](CCCCN)C(=O)N1CCC[C@H]1C(=O)N[C@H](C(=O)N[C@H](C(=O)N[C@H](C(N)=O)[C@@H](C)CC)[C@@H](C)CC)[C@@H](C)CC)[C@@H](C)CC)[C@@H](C)CC)[C@@H](C)CC)[C@@H](C)CC [IIICRKPIICRKPIII] | > 64 µM | > 64 µM | > 64 µM | 32 µM (≈ 60.5 µg/mL) | ≥ 32 µM | 8 µM (≈ 15.1 µg/mL) | ≥ 32 µM | ≥ 64 µM | > 64 µM | ≥ 32 µM | 8 µM (≈ 15.1 µg/mL) | > 64 µM |
| CC(C)[C@H](N)C(=O)N[C@@H](CS)C(=O)N[C@@H](CCCN=C(N)N)C(=O)N[C@@H](CCCCN)C(=O)N1CCC[C@H]1C(=O)N[C@H](C(=O)N[C@H](C(=O)N[C@@H](CS)C(=O)N[C@@H](CCCN=C(N)N)C(=O)N[C@@H](CCCCN)C(=O)N1CCC[C@H]1C(=O)N[C@H](C(=O)N[C@H](C(=O)N[C@@H](CS)C(=O)N[C@@H](CCCN=C(N)N)C(=O)N[C@@H](CCCCN)C(=O)N1CCC[C@H]1C(=O)N[C@H](C(=O)N[C@H](C(=O)N[C@@H](CS)C(=O)N[C@@H](CCCN=C(N)N)C(=O)N[C@@H](CCCCN)C(=O)N1CCC[C@H]1C(=O)N[C@H](C(N)=O)C(C)C)C(C)C)C(C)C)C(C)C)C(C)C)C(C)C)C(C)C [VCRKPVVCRKPVVCRKPVVCRKPV] | > 64 µM | > 64 µM | > 64 µM | 8 µM (≈ 22 µg/mL) | 8 µM (≈ 22 µg/mL) | 8 µM (≈ 22 µg/mL) | ≥ 64 µM | ≥ 64 µM | > 64 µM | ≥ 64 µM | 8 µM (≈ 22 µg/mL) | > 64 µM |
